Structures are written as SMILES. Like-named read-outs stand apart in the source and are kept apart here. A value given as a limit tells only on which side of the number the result lay.

Assay [1] relates to Candida albicans (ATCC 10231). The experiment in a line: Minimum Inhibitory Concentration (MIC) against yeast, broth dilution. The assay is classed as cell-based. The following applies: for MIC Candida albicans (ATCC 10231): 37° C., 20 hours, mean of duplicate.
Assay [2] has as its target T1, NAD synthetase (recombinant protein from B. subtilis; purified) (Bacillus subtilis, UniProt P08164).
T1 construct: made in house
As to the kind of experiment: NAD synthetase enzyme inhibition assay (coupled enzymatic assay, HTS). The assay is classed as biochemical. The note with it: IC50 (μg/mL) for Inhibit. of NAD Synthetase, table of structures used in the yeast assay (Example 4). How it is done: NAD Synthetase Enzyme Inhibition Assay-Determination of Test Compound Concentrations Providing 50% Inhibition ([…]) of the Maximum Enzyme Rate
The potential inhibitory activity of the synthetic compounds was determined by the use of a coupled enzymatic assay. The coupled assay involves two steps as summarized below. [drawing 98]
The measurement of inhibitory activities of the test compounds was facilitated by the use of a high through-put screening system (HTS system). The HTS system utilizes an integrated Sagian 2M ORCA robotic system coordinating the functions of a Beckman Biomek 2000 liquid handler and a Molecular Devices SpectraMax Plus spectrophotometer. The 2M ORCA robotic station is responsible for the movement of all hardware and the integration of multiple stations on the worksurface. The Biomek 2000 is programmed to perform all phases of liquid dispensing and mixing. The SpectraMax Plus spectrophotometer is equipped to monitor absorbance in a 96-well plate format.
The Biomek 2000 mixes these components utilizing a predefined mixing program. […] The reaction is monitored by measuring the increase in absorbance at 340 nm (NADH). The linear portion of the reaction is monitored for 180 sec. The initial velocity is determined using Softmax Pro, the software supplied with the Molecular Devices SpectrMax Plus spectrophotometer.
The test compounds were supplied as a stock solution with a concentration of 50 mM dissolved in 100% dimethyl sulfoxide (DMSO). An initial screen was conducted on all compounds using a 2 or 3 concentration screen. The 2 panel screen used concentrations of 0.2 mM and 0.1 mM for the compounds. The 3 panel screen used concentrations of 0.2 mM, 0.1 mM, and 0.05 mM. […] The IC50 values for each compound were determined graphically from a plot of % inhibition versus […].

Assay [3] concerns Candida tropicalis ATCC 750. As to the kind of experiment: In vitro study of inhibition of growth and lethality against yeast (MIC/MLC susceptibility test), isolate A. The format is cell-based. The following applies: Candida tropicalis, 2nd pair of lines, isolate assigned by line order; for MFC: ATCC750, read-out: Minimum Lethal Conc. (MLC).
In assay [4] the test system is Candida tropicalis ATCC 28707. As to the kind of experiment: In vitro study of inhibition of growth and lethality against yeast (MIC/MLC susceptibility test), isolate B. The format is cell-based. The following applies: Candida tropicalis, 1st pair of lines, isolate assigned by line order; for MFC: ATCC28707, read-out: Minimum Lethal Conc. (MLC).
For assay [5], the system named is Candida albicans KJP-000531594. As to the kind of experiment: In vitro study of inhibition of growth and lethality against yeast (MIC/MLC susceptibility test), isolate C. The assay is classed as cell-based. The following applies: Candida albicans, 1st pair of lines; for MFC: KJP000531594, read-out: Minimum Lethal Conc. (MLC).
The test system of assay [6] is Candida albicans LH-000664533. As to the kind of experiment: In vitro study of inhibition of growth and lethality against yeast (MIC/MLC susceptibility test), isolate D. The assay is classed as cell-based. The following applies: Candida albicans, 2nd pair of lines, isolate assigned by line order; for MFC: LH000664533, read-out: Minimum Lethal Conc. (MLC).
In assay [7] the test system is Torulopsis glabrata JHC-BC9951635. The experiment in a line: In vitro study of inhibition of growth and lethality against yeast (MIC/MLC susceptibility test), isolate E. The format is cell-based. The note with it: Torulopsis glabrata, 2nd pair of lines, isolate assigned by line order; for MIC / MFC: Nakaseomyces glabratus; for MFC: JHCBC9951635, read-out: Minimum Lethal Conc. (MLC).

The test system of assay [8] is Torulopsis glabrata ERH-BC9938274. The experiment in a line: In vitro study of inhibition of growth and lethality against yeast (MIC/MLC susceptibility test), isolate F. The assay is classed as cell-based. The note with it: Torulopsis glabrata, 1st pair of lines, isolate assigned by line order; for MIC / MFC: Nakaseomyces glabratus; for MFC: ERHBC9938274, read-out: Minimum Lethal Conc. (MLC).

The subject of assay [9] is Cryptococcus neoformans DLB-1027594CNC. The experiment in a line: In vitro study of inhibition of growth and lethality against yeast (MIC/MLC susceptibility test), isolate G. The format is cell-based. The note with it: Cryptococcus neoformans, 1st pair of lines, isolate assigned by line order; for MIC / MFC: DLB1027594CNC; for MFC: read-out: Minimum Lethal Conc. (MLC).
Assay [10] relates to Cryptococcus neoformans SLP-BC0012854. As to the kind of experiment: In vitro study of inhibition of growth and lethality against yeast (MIC/MLC susceptibility test), isolate H. The note with it: Cryptococcus neoformans, 2nd pair of lines, isolate assigned by line order; for MFC: SLPBC0012854, read-out: Minimum Lethal Conc. (MLC). The format is cell-based.
Setting [11] is: ATCC750, 24 h, read at 24 hr, read-out: Minimum Inhibitory Conc. (MIC), 24 hr.
Where [12] appears, read: ATCC750, 48 h, read at 48 hr, read-out: Minimum Inhibitory Conc. (MIC), 48 hr.
The mark [13] stands for this setting: ATCC28707, 24 h, read at 24 hr, read-out: Minimum Inhibitory Conc. (MIC), 24 hr.
[14] abbreviates: ATCC28707, 48 h, read at 48 hr, read-out: Minimum Inhibitory Conc. (MIC), 48 hr.
Where [15] appears, read: KJP000531594, 24 h, read at 24 hr, isolate not given, assigned by line order and MLC of Table 4B, read-out: Minimum Inhibitory Conc. (MIC), 24 hr.
[16] abbreviates: KJP000531594, 48 h, read at 48 hr, isolate assigned by line order, read-out: Minimum Inhibitory Conc. (MIC), 48 hr.
The mark [17] stands for this setting: LH000664533, 24 h, read at 24 hr, read-out: Minimum Inhibitory Conc. (MIC), 24 hr.
Setting [18] is: LH000664533, 48 h, read at 48 hr, read-out: Minimum Inhibitory Conc. (MIC), 48 hr.
Where [19] appears, read: JHCBC9951635, 24 h, read at 24 hr, read-out: Minimum Inhibitory Conc. (MIC), 24 hr.
The mark [20] stands for this setting: JHCBC9951635, 48 h, read at 48 hr, read-out: Minimum Inhibitory Conc. (MIC), 48 hr.
Setting [21] is: ERHBC9938274, 24 h, read at 24 hr, read-out: Minimum Inhibitory Conc. (MIC), 24 hr.
Where [22] appears, read: ERHBC9938274, 48 h, read at 48 hr, read-out: Minimum Inhibitory Conc. (MIC), 48 hr.
Setting [23] is: 48 h, read at 48 hr, read-out: Minimum Inhibitory Conc. (MIC), 48 hr.
Setting [24] is: 72 h, read at 72 hr, read-out: Minimum Inhibitory Conc. (MIC), 72 hr.
Setting [25] is: SLPBC0012854, 48 h, read at 48 hr, read-out: Minimum Inhibitory Conc. (MIC), 48 hr.
The mark [26] stands for this setting: SLPBC0012854, 72 h, read at 72 hr, read-out: Minimum Inhibitory Conc. (MIC), 72 hr.

T1 sequence (P08164 whole entry): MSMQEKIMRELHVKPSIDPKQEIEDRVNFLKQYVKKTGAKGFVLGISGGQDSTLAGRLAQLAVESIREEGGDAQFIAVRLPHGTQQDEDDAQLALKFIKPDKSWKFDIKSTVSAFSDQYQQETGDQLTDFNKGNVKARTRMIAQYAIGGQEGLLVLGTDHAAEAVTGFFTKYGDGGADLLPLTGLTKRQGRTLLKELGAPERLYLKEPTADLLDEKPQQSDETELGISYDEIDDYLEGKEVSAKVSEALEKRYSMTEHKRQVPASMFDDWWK

With `COC(=O)c1cc2cc(OCc3ccccc3)ccc2n1CCCCCCCCOC(=O)c1ccc[n+](C)c1` [Compound 977], in assay [1], the “MIC Candida albicans (ATCC 10231)” value turned out to be 1.6 µg/mL.

Consider `COC(=O)c1cc2ccccc2n1CCCCCCCOC(=O)Cc1ccc([N+](C)(C)C)cc1` [Compound 984], for which the minimal inhibitory concentration (MIC) in assay [1] (Candida albicans, ATCC10231, 20 h, read-out: MIC Candida albicans (ATCC 10231)) is 0.78 µg/mL.

On to `COC(=O)c1cc2cc(OCc3ccccc3)ccc2n1CCCCCCCOC(=O)c1ccc[n+](C)c1` [Compound 976], for which the “MIC Candida albicans (ATCC 10231)” value in assay [1] worked out at 3.1 µg/mL.

On to `COC(=O)c1cc2ccccc2n1CCCCCCCCOC(=O)Cc1ccc([N+](C)(C)C)cc1` [Compound 985], for which the “MIC Candida albicans (ATCC 10231)” value in assay [1] came to 1.6 µg/mL.

Take `C[N+](C)(C)c1ccc(CC(=O)OCCCCCCCCn2ccc3cc(OCc4ccccc4)ccc32)cc1` [Compound 749]: the “MIC Candida albicans (ATCC 10231)” value in [1] stood at 1.6 µg/mL.

Regarding `COC(=O)c1cc2ccccc2[n+](C)c1-c1c[nH]c2ccccc12.[I-]` [Compound 1500], the half-maximal inhibitory concentration (IC50) in [2] was above 450 µM. Moreover, the MFC was above 32 µg/mL in assay [3]; 8 µg/mL in assay [4]; above 32 µg/mL in [5] (isolate assigned by line order); above 32 µg/mL in assay [6]; above 32 µg/mL in assay [7]; above 32 µg/mL in assay [8]. The MFC in assay [9] and in assay [10] was above 32 µg/mL throughout. Further, the “Minimum Inhibitory Conc. (MIC), 24 hr.” value was above 32 µg/mL in [3] (read at 24 hr); above 32 µg/mL in [5] (read at 24 hr, isolate not given, assigned by line order and MLC of Table 4B); above 32 µg/mL in assay [6] (read at 24 hr); above 32 µg/mL in [7] (read at 24 hr); above 32 µg/mL in assay [8] (read at 24 hr). For the same molecule, the MIC in [3] (setting [11]) was 32 µg/mL; in [3] (setting [12]), above 32 µg/mL; in assay [4] (setting [13]), 4 µg/mL; in assay [4] (setting [14]), 8 µg/mL; in assay [5] (setting [15]), 32 µg/mL; in assay [5] (setting [16]), above 32 µg/mL. For the same molecule, the MIC in assay [6] (setting [17]) was 32 µg/mL; in assay [6] (setting [18]), above 32 µg/mL; in assay [7] (setting [19]), 32 µg/mL; in assay [7] (setting [20]) it was above 32 µg/mL; in assay [8] (setting [21]) it was 32 µg/mL; in assay [8] (setting [22]) it was above 32 µg/mL. Further, the minimal inhibitory concentration (MIC) in assay [9] (setting [23]), in assay [9] (setting [24]), in [10] (setting [25]) and in assay [10] (setting [26]) was 32 µg/mL each time. Besides, the “Minimum Inhibitory Conc. (MIC), 72 hr.” value in assay [9] (read at 72 hr) and in assay [10] (read at 72 hr) was above 32 µg/mL throughout.

As to `C[N+](C)(C)C(CCc1ccccc1)C(=O)OCCCCCCCCOc1ccc(OCc2ccccc2)cc1.[I-]` (stereo not drawn) [Compound 1260], the IC50 in assay [2] was 45.5 µM. Moreover, the MFC in assay [3] turned out to be 2 µg/mL; in assay [4], 1 µg/mL; in assay [5] (isolate assigned by line order), 2 µg/mL; in assay [6] it was 4 µg/mL; in assay [7], 2 µg/mL; in assay [8] it was 2 µg/mL. In addition, the MFC in assay [9] and in [10] was 2 µg/mL throughout. In addition, the minimal inhibitory concentration (MIC) in assay [3] (setting [11]) amounted to 2 µg/mL; in assay [3] (setting [12]), 2 µg/mL; in assay [4] (setting [13]), 1 µg/mL; in [4] (setting [14]), 1 µg/mL; in assay [5] (setting [15]), 2 µg/mL; in assay [5] (setting [16]), 2 µg/mL. For the same molecule, the MIC in [6] (setting [17]), in assay [6] (setting [18]), in [7] (setting [19]), in assay [7] (setting [20]), in [8] (setting [21]) and in assay [8] (setting [22]) was 2 µg/mL each time. The minimum inhibitory concentration (MIC) in assay [9] (setting [23]), in assay [9] (setting [24]), in assay [10] (setting [25]) and in assay [10] (setting [26]) was 1 µg/mL throughout.

In the case of `C[N+](C)(C)c1ccc(CCCC(=O)OCCCCCCCCOc2ccc(OCc3ccccc3)cc2)cc1.[I-]` [Compound 1200], the half-maximal inhibitory concentration (IC50) in assay [2] is 53.1 µM. For the same molecule, the MFC in assay [3] is 1 µg/mL; in assay [4] it was 1 µg/mL; in [5] (isolate assigned by line order), 2 µg/mL; in assay [6] it was 2 µg/mL; in [7], 1 µg/mL; in assay [8], 2 µg/mL. For the same molecule, the MFC in [9] and in assay [10] was 4 µg/mL each time. The “Minimum Inhibitory Conc. (MIC), 24 hr.” value in assay [3] (read at 24 hr) is 1 µg/mL. Moreover, the “Minimum Inhibitory Conc. (MIC), 48 hr.” value in assay [3] (read at 48 hr) turned out to be 1 µg/mL. In addition, the MIC turned out to be 2 µg/mL in assay [3] (setting [11]); 2 µg/mL in assay [3] (setting [12]); 1 µg/mL in assay [4] (setting [13]); 1 µg/mL in [4] (setting [14]); 2 µg/mL in [5] (setting [15]); 2 µg/mL in [5] (setting [16]). Further, the MIC in [6] (setting [17]) amounted to 2 µg/mL; in [6] (setting [18]), 2 µg/mL; in assay [7] (setting [19]) it was 1 µg/mL; in assay [7] (setting [20]), 1 µg/mL; in [8] (setting [21]) it was 1 µg/mL; in assay [8] (setting [22]) it was 2 µg/mL. Further, the MIC in assay [9] (setting [23]), in [9] (setting [24]), in [10] (setting [25]) and in assay [10] (setting [26]) was 2 µg/mL each time.

Regarding `COC(=O)c1cc2ccccc2n1CCCCCCCCCOC(=O)Cc1ccc([N+](C)(C)C)cc1` [Compound 986], in assay [1], the “MIC Candida albicans (ATCC 10231)” value came out at 2.3 µg/mL.
